B1: AChE (Homo sapiens) (protein)
chain: EGREDAELLVTVRGGRLRGIRLKTPGGPVSAFLGIPFAEPPMGPRRFLPPEPKQPWSGVVDATTFQSVCYQYVDTLYPGFEGTEMWNPNRELSEDCLYLNVWTPYPRPTSPTPVLVWIYGGGFYSGASSLDVYDGRFLVQAERTVLVSMNYRVGAFGFLALPGSREAPGNVGLLDQRLALQWVQENVAAFGGDPTSVTLFGESAGAASVGMHLLSPPSRGLFHRAVLQSGAPNGPWATVGMGEARRRATQLAHLVGCPPGGTGGNDTELVACLRTRPAQVLVNHEWHVLPQESVFRFSFVPVVDGDFLSDTPEALINAGDFHGLQVLVGVVKDEGSYFLVYGAPGFSKDNESLISRAEFLAGVRVGVPQVSDLAAEAVVLHYTDWLHPEDPARLREALSDVVGDHNVVCPVAQLAGRLAAQGARVYAYVFEHRASTLSWPLWMGVPHGYEIEFIFGIPLDPSRNYTAEEKIFAQRLMRYWANFARTGDPNEPRDPKAPQWPPYTAGAQQYVSLDLRPLEVRRGLRAQACAFWNRFLPKLLSATDTLDEAERQWKAEFHRWSSYMVHWKNQFDHYSKQDRCSDL

Experiments:
[1] = target: acetylcholine esterase (AChE) (Electrophorus electricus, UniProt O42275); format: biochemical
Protocol: Data were recorded in 0.1 M phosphate buffer, pH=8.1, under argon.
One of the products of the hydrolysis of acetylthiocholine is thiocholine (2), which is an electron donor.
FIG. 2A depicts the photocurrent action spectra resulting in the photoirradiation of the system in the presence of different concentrations of acetylthiocholine. […] Thus, the photocurrent generation in the system is attributed to the AChE catalyzed hydrolysis of acetylthiocholine, (1), to acetate and thiocholine, (2). The latter product acts as donor for the holes generated in the valence band upon excitation of the CdS nanoparticles. Thus, oxidation of thiocholine by the holes eliminates the electron-hole recombination, and thus a steady-state photocurrent is generated.

[2] = substrate: CC(=O)SCC[N+](C)(C)C; assay: KM of AChE towards acetylthiocholine in solution; format: biochemical; details: other: AChE in solution
Protocol: The KM value of the AChE linked to the CdS nanoparticles towards acetylthiocholine, (1), is KM=5 mM. This value is higher than the KM=0.13 mM of ACHE and (1) in solution. The higher KM value for the nanoparticle-immobilized ACHE may be attributed to slight deactivation and structural perturbation of the biocatalyst as a result of surface linkage.

acetylcholine esterase (AChE), sequence (O42275 24-633): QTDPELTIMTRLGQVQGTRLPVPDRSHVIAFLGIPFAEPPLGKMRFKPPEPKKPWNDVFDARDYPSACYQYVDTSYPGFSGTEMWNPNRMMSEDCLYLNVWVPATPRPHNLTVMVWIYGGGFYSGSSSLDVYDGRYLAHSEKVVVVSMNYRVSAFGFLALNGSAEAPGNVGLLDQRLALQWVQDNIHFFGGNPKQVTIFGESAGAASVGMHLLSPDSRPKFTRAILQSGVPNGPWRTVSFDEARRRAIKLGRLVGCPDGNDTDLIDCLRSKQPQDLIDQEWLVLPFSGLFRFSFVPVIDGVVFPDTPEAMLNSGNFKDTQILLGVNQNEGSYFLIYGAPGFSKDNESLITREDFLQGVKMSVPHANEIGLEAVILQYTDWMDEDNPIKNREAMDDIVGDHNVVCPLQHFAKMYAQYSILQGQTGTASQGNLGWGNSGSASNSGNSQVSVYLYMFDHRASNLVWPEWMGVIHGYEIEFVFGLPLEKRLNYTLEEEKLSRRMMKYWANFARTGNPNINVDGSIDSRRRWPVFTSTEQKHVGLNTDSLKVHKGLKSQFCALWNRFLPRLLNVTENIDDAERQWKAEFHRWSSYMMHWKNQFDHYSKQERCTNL

Row | Molecule | effect on photocurrent with increasing concentration [1] | mode of inhibition [1] | reversibility: photocurrent after washing off the inhibitor [1] | Km [2]
1 | C=CC[N+](C)(C)c1ccc(CCC(=O)CCc2ccc([N+](C)(C)CC=C)cc2)cc1 [(3), 1,5-bis(4-allyldimethylammoniumphenyl)pentane-3-one dibromide] | decreases the photocurrent | competitive inhibitor | almost restores the initial photocurrent | 
2 | B1 |  |  |  | 130 µM

Reference: patent US20060199240A1, “Biosensor and method comprising enzymes immobilized on semiconductors” (Yissum Research Development Company of the Hebrew …, priority 2002, published 2006)
